# Assay results published in US9580426B2, “Compounds that expand hematopoietic stem cells” (Novartis AG, priority 2008, dated 2017).
# System: CYP1B1 mRNA in mPB-derived CD34+ cells
# Assay: TCDD-mediated CYP1B1 mRNA expression by qPCR
# Assay type: cell-based, human
# Details: 3 nM; vehicle 0.01% toluene
# Method: Further, the ability of Example 1 to block 2,3,7,8-tetrachlorodibenzo-p-dioxin (TCDD, dioxin)-mediated CYP1B1 mRNA expression by qPCR in mPB-derived CD34^+ cells was determined. Treatment with TCDD (3 nM) caused a 4.5-fold increase in the level of CYP1B1 mRNA compared with the vehicle control (0.01% toluene). […] To determine the effects of Example 1 in AHR transcription the ability of Example 1 to inhibit a dioxin-induced AHR dependent luciferase reporter gene assay was tested.
structure (smiles),measurement,value
"Clc1cc2c(cc1Cl)Oc1cc(Cl)c(Cl)cc1O2 [TCDD, 2,3,7,8-tetrachlorodibenzo-p-dioxin]",increase in the level of CYP1B1 mRNA compared with vehicle control,4.5 fold
